Data from US20220257557A1, “PHARMACEUTICAL COMPOSITION FOR PREVENTING OR TREATING NEUROLOGICAL DISEASES” (GLACEUM INC., priority 2019, published 2022).

Assays:
BV2 cells [1] = assay: IL-1β, IL-6 and TNF-α mRNA expression after LPS (RT-PCR); format: cell-based; details: 3 h pretreatment (Table 3 amounts), LPS 1 μg/ml 6 h
Protocol: (§1) RAW264.7 cells or BV2 cells (5×10^5 cells/well) were dispensed in DMEM containing 10% heat-inactivated FBS, 10 IU/mL penicillin G, 100 μg/mL streptomycin and 2 mM L-glutamine and cultured in a 5% CO2 incubator at a temperature of 37° C.
(§2) The compound of Formula III-3, III-4, V-3, III-1, IV-1, V-1, IV-2, V-2 or II-2 was added to the RAW264.7 cells or BV2 cells, and the toxicities of the compounds were determined by MTT assay.
(§3) The pretreated cells of Experimental Example 4-1 were treated with 1 μg/ml of LPS for 6 hours, and then the mRNA expression level of the cytokine IL-1β, IL-6 or TNF-α produced in the inflammatory response was analyzed using RT-PCR.

RAW264.7 cells [2] = assay: as above; format: cell-based; details: 3 h pretreatment (Table 3 amounts), LPS 1 μg/ml 6 h
Protocol: as §1, §2, §3

BV2 cells [3] = assay: Transcription of NF-κB protein (p65, p50) into nucleus after LPS (Western blot); format: cell-based; details: 3 h pretreatment (Table 3 amounts), LPS 1 μg/ml 1 h
Protocol: as §1, §2
(§4) The pretreated cells of Experimental Example 4-1 were treated with 1 μg/ml of LPS for 1 hour, and then the level of transcription of NF-κB protein into the nucleus of each of p65 and p50 was analyzed through Western blot.

BV2 cells [4] = assay: iNOS and COX-2 expression after LPS (Western blot); format: cell-based; details: 3 h pretreatment (Table 3 amounts), LPS 1 μg/ml 24 h
Protocol: as §1, §2
(§5) The pretreated cells of Experimental Example 4-1 were treated with 1 μg/ml of LPS for 24 hours, and then the expression levels of iNOS and COX-2 were observed through Western blot, and the production of NO and PGE2 was measured.

RAW264.7 cells [5] = assay: iNOS and COX-2 expression after LPS (Western blot); format: cell-based; details: 3 h pretreatment (Table 3 amounts), LPS 1 μg/ml 24 h
Protocol: as §1, §2, §5

[6] = target: T1, rePON1 (PON1, paraoxonase 1) (Homo sapiens, UniProt P27169); assay: Prevention of inhibition of PON1 activity by oxidized linolenic acid (TBBL substrate); format: biochemical; details: for activity at 30 µM: 30 μM compound with rePON1 30 min, then oxidized linolenic acid 2 h, TBBL substrate, normal control 100, negative control 73.64
T1 construct: purchased Thermo Corp. RP-75678
T1 sequence (P27169 whole entry): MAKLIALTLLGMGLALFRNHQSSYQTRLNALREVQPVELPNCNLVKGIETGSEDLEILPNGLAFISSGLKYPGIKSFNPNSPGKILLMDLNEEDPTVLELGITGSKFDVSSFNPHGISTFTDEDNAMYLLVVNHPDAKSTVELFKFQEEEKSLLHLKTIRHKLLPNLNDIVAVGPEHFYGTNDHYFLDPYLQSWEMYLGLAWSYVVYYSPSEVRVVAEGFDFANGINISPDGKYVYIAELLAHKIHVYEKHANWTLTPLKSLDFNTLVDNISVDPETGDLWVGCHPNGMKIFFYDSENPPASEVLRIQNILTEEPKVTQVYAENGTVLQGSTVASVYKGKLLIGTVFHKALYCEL
Protocol: Based on the fact that the activity of PON1 is inhibited when PON1 is treated with oxidized linolenic acid, an experiment was conducted to confirm the prevention of inhibition of PON1 activity. The activity of PON1 was measured using TBBL (5-thiobutyl butyrolactones) as a substrate.
Specifically, after 9.6 μl of 50 mM Tris-HCl containing 1 mM CaCl2 was added to each of […] Eppendorf tubes, 0.2 μl of each of the compounds of Formulas III-1, IV-1, V-1, IV-2, V-2, II-1, IV-3, V-3, III-2, IV-4, V-4, II-2 and III-3 and glabridine was added to each tube so that the concentration thereof was 30 μM. 0.2 μl of rePON1 (RP-75678, Thermo Corp.) was added to each of the 12 tubes and mixed. Thereafter, each of the mixtures was allowed to react at room temperature for 30 minutes, and 0.5 μl of 1 mM oxidized linolenic acid (OX-LA) dissolved in DMSO was added thereto in order to inhibit rePON1 activity, followed by reaction at room temperature for 2 hours, thus preparing solutions (I).
25 μl of 0.5 mM DTNB dissolved in 50 mM Tris-HCl containing 1 mM CaCl2 was dispensed into each well of a 384-well plate, and then 10 μl of each of the solutions (I) was dispensed into each well, and 20 μl of 2 mM TBBL dissolved in 50 mM Tris-HCl containing 1 mM CaCl2 was added to each well, thus preparing samples. The absorbance of each of the samples at 420 nm was measured using a spectrometer (SpectraMax M2) at 37° C. every 2 minutes for 1 hour.
In addition, a negative control was prepared in the same manner as the above-described method, except that, for the preparation of a solution, 0.2 μl of DMSO was added instead of the compounds of Formulas III-1, IV-1, V-1, IV-2, V-2, II-1, IV-3, V-3, III-2, IV-4, V-4, II-2 and III-3 and glabridin. Furthermore, a normal control was prepared in the same manner as the above-described method, except that, for the preparation of a solution, 0.2 μl of DMSO was added instead of the above-described compounds and glabridin and that oxidized linolenic acid was not added. The absorbance of each of the negative control and the normal control was measured.
Using SoftMax Pro software, the activity of PON1 was calculated from the absorbance using the following Equation 1, and the results are shown in Table 1 below.
Activity=(absorbancesample−absorbanceblank)/(absorbancePON1−absorbanceblank)*100 [Equation 1]

BV2 cells [7] = assay: NO and PGE2 production after LPS; format: cell-based; details: 3 h pretreatment (Table 3 amounts), LPS 1 μg/ml 24 h
Protocol: as §1, §2, §5

RAW264.7 cells [8] = assay: NO and PGE2 production after LPS; format: cell-based; details: 3 h pretreatment (Table 3 amounts), LPS 1 μg/ml 24 h
Protocol: as §1, §2, §5

RAW264.7 cells [9] = assay: Transcription of NF-κB protein (p65, p50) into nucleus after LPS (Western blot); format: cell-based; details: 3 h pretreatment (Table 3 amounts), LPS 1 μg/ml 1 h
Protocol: RAW264.7 cells or BV2 cells (5×10^5 cells/well) were dispensed in DMEM containing 10% heat-inactivated FBS, 10 IU/mL penicillin G, 100 μg/mL streptomycin and 2 mM L-glutamine and cultured in a 5% CO2 incubator at a temperature of 37° C. […]
as §4

For CCCc1ccc([C@H]2COc3c(ccc4c3CCC(C)(C)O4)C2)c(O)c1 [Formula V-3, (S)-2-(8,8-dimethyl-2,3,4,8,9,10-hexahydropyrano[2,3-f]chromen-3-yl)-5-propylphenol], the “mRNA expression level of IL-1β” value (BV2 cells [1]) was “concentration-dependently decreased”, the “mRNA expression level of IL-6” value (BV2 cells [1]) was “concentration-dependently decreased” and the “mRNA expression level of TNF-α” value (BV2 cells [1]) was “concentration-dependently decreased”. The “mRNA expression level of IL-1β” value (RAW264.7 cells [2]) was “concentration-dependently decreased”, the “mRNA expression level of IL-6” value (RAW264.7 cells [2]) was “concentration-dependently decreased” and the “mRNA expression level of TNF-α” value (RAW264.7 cells [2]) was “concentration-dependently decreased”. For the same compound, the “level of transcription of NF-κB protein into the nucleus, p50” value (from here on “level of transcription … p50”) (BV2 cells [3]) was “concentration-dependently decreased”, the “level of transcription of NF-κB protein into the nucleus, p65” value (“level of transcription … p65” for short) (BV2 cells [3]) was “concentration-dependently decreased” and the “expression level of COX-2” value (BV2 cells [4]) was “concentration-dependently decreased”. The “expression level of iNOS” value (BV2 cells [4]) was “concentration-dependently decreased”, the “expression level of COX-2” value (RAW264.7 cells [5]) was “concentration-dependently decreased” and the “expression level of iNOS” value (RAW264.7 cells [5]) was “concentration-dependently decreased”. The activity at 30 µM [6] was 95.1%, the “extent to which inhibition of rePON1 activity was prevented, compared with glabridin” value ([6]; compound 30 μM vs glabridin 30 μM, result in words) was “greater” and the “inhibition of rePON1 activity by oxidized linolenic acid” value ([6]; compound 30 μM, result in words) was “prevented”. For the same compound, the “production of NO” value (BV2 cells [7]) was “concentration-dependently decreased”, the “production of PGE2” value (BV2 cells [7]) was “concentration-dependently decreased” and the “production of NO” value (RAW264.7 cells [8]) was “concentration-dependently decreased”. For the same compound, the “production of PGE2” value (RAW264.7 cells [8]) was “concentration-dependently decreased”, the “level of transcription … p50” value (RAW264.7 cells [9]) was “concentration-dependently decreased” and the “level of transcription … p65” value (RAW264.7 cells [9]) was “concentration-dependently decreased”.
With CC1(C)C=Cc2c(ccc3c2OC[C@@H](c2ccc(O)cc2O)C3)O1 [Glabridin, glabridin, reference compound] the “mRNA expression level of IL-1β” value (BV2 cells [1]) was “did not decrease”, the “mRNA expression level of IL-6” value (BV2 cells [1]) was “did not decrease” and the “mRNA expression level of TNF-α” value (BV2 cells [1]) was “did not decrease”. The “mRNA expression level of IL-1β” value (RAW264.7 cells [2]) was “did not decrease”, the “mRNA expression level of IL-6” value (RAW264.7 cells [2]) was “did not decrease” and the “mRNA expression level of TNF-α” value (RAW264.7 cells [2]) was “did not decrease”. The “level of transcription … p50” value (BV2 cells [3]) was “did not decrease”, the “level of transcription … p65” value (BV2 cells [3]) was “did not decrease” and the “expression level of COX-2” value (BV2 cells [4]) was “did not decrease”. The “expression level of iNOS” value (BV2 cells [4]) was “did not decrease”, the “expression level of COX-2” value (RAW264.7 cells [5]) was “did not decrease” and the “expression level of iNOS” value (RAW264.7 cells [5]) was “did not decrease”. The activity at 30 µM [6] was 82.8%, the “production of NO” value (BV2 cells [7]) was “did not decrease” and the “production of PGE2” value (BV2 cells [7]) was “did not decrease”. For the same compound, the “production of NO” value (RAW264.7 cells [8]) was “did not decrease”, the “production of PGE2” value (RAW264.7 cells [8]) was “did not decrease” and the “level of transcription … p50” value (RAW264.7 cells [9]) was “did not decrease”. The “level of transcription … p65” value (RAW264.7 cells [9]) was “did not decrease”.
